{"source": "patent US20230000876A1", "about": "“TREATING CANCERS WITH A CYCLIN-DEPENDENT KINASE INHIBITOR” (Nuvation Bio Inc., priority 2021, published 2023)", "key": {"[1]": {"test_system": "U-87MG-luc orthotopic intracranial tumors", "test": "U-87MG-luc glioblastoma orthotopic intracranial model, survival", "format": "in vivo, female BALB/c nude mice", "experimental": "U-87MG-luc cells were derived from U-87MG parental cells acquired from ATCC by stably introducing the gene that encodes the luciferase (luc) protein. The U-87MG-luc cells were cultured at 37° C. in an atmosphere of 5% CO2 in air. The tumor cells were routinely subcultured twice weekly. The cells growing in an exponential growth phase were harvested and counted for tumor inoculation.\n3×10^5 U-87MG-luc tumor cells were micro-injected into the right lobe (caudate nucleus) of the brain of each mouse. A total of 94 mice were inoculated. Ten days after cell inoculation, bioluminescence were measured by Xenogen IVIS Lumina II machine, 70 mice were selected and randomly assigned into 7 groups based on bioluminescence intensity and bodyweight. The mice were dosed according to Table 25."}, "[2]": {"test": "Pharmacokinetics and brain distribution after single oral dose, rats", "format": "in vivo, male Sprague-Dawley rats", "conditions": "for Kp at 6 h / concentration at 6 h / Cmax / Tmax / concentration at 1 h / concentration at 2 h / concentration at 4 h / concentration at 8 h / concentration at 12 h / AUC(0-inf) / half-life / concentration at 24 h: male, Sprague-Dawley, rat; for Kp at 6 h: po", "experimental": "The pharmacokinetics and brain distribution in maleCD1 mice and Sprague-Dawley rats following a single oral (PO) dose was evaluated. The compound of formula (I) was administered once at 10 mg/kg to mice and at 1, 10, 30, and 100 mg/kg to rats. All doses, compound of formula (I) concentrations, and derived PK parameters are expressed as the free base of the compound of formula (I).\nThe in-life portion of these studies was performed by Alliance Pharma (Malvern, Pa.) according to Protocols 200107-02 (mice) and 1910158-02 (rats). Animals were assigned randomly to the dose groups and were fasted 12 hours prior to dosing. Water was available ad libitum. The compound of formula (I) (as an HCl salt) was given to male CD1 mice at 10 mg/kg single PO dose, while in Sprague-Dawley rats, the doses were 1, 10, 30, and 100 mg/kg. In both studies, the compound of formula (I) was formulated in 0.5% hydroxypropyl methylcellulose (HPMC)/0.2% Tween 80 and the dosing volume was 5 mL/kg for all dose groups.\nWhole blood was collected at 2, 4, 6, and 12 hours post dose from mice and predose and 1, 2, 4, 8, 12, and 24 hours post dose from rats into tubes containing dipotassium ethylenediaminetetraacetic acid (K2EDTA). Blood was obtained from 3 mice and 4 rats per time-point per dose level. The blood samples were processed into plasma analyzed at Alliance Pharma using the method as described below.\nThe brain tissue was collected from mice at 2, 4, 6, and 12 hours post dose and was collected from rats at 6 hours post dose given 1, 10, 30, or 100 mg/kg of the compound of formula (I). Brain tissue was obtained from 3 mice per time-point at the 10 mg/kg dose level and 4 rats per dose level at the 6-hour post dose time-point.\nBrain tissue was rinsed by phosphate-buffered saline (PBS) buffer immediately after harvest, weighed, and mixed with solvent (MeOH:H2O [volume over volume of 20:80]) with a ratio of tissue to solvent of 1:4 (weight over volume). […] After homogenization, the homogenate was aliquoted out for sample analysis.\nThe concentrations of the compound of formula (I) in the plasma and brain homogenate were determined versus a calibration curve prepared in plasma and naïve brain homogenate, respectively. Samples were deproteinized with acetonitrile containing tolbutamide as internal standard. After centrifugation, the supernatants were analyzed by liquid chromatography with tandem mass spectrometry (LC-MS/MS). Chromatography was performed with a Zorbax SB-C18 (50×2.1 mm, […]) column under gradient conditions described in Table 22. Mobile Phase A (0.1% formic acid [FA] in water) and Mobile Phase B (0.1% FA in acetonitrile) were delivered as a flow rate of 0.8 mL/min. LC-MS/MS was performed using a positive TurboIonSpray® interface on a SciexAPI 4000 and multiple-reaction monitoring (MRM) over a concentration range of 1 ng/mL to 1000 (rats) or 2000 (mice) ng/mL for the plasma and brain homogenate samples.\nThe mean plasma concentration-time data of the compound of formula (I) was used to determine the pharmacokineticparameters by standard noncompartmental methods using Phoenix® WinNonlin (version 8.2.0; Certara, Princeton, N.J.). Graphs were plotted in Prism® (version 2.3.0; GraphPad, San Diego, Calif.). Concentrations were rounded to 3 significant figures."}, "[3]": {"conditions": "plasma, single PO 1 mg/kg (HCl salt, as free base)"}, "[4]": {"conditions": "plasma, single PO 10 mg/kg (HCl salt, as free base)"}, "[5]": {"conditions": "plasma, single PO 30 mg/kg (HCl salt, as free base)"}, "[6]": {"conditions": "plasma, single PO 100 mg/kg (HCl salt, as free base)"}}, "note": "Like-named read-outs stand apart in the source and are kept apart here."}
{"smiles": "CC(C)N1CCOc2c(F)cc(-c3nc(Nc4ccc(C5CCN(C)CC5)cn4)ncc3F)cc21", "note": "[Compound (I), 5-fluoro-4-(8-fluoro-4-isopropyl-3,4-dihydro-2H-benzo[b][1,4]oxazin-6-yl)-N-(5-(1-methylpiperidin-4-yl)pyridin-2-yl)pyrimidin-2-amine]", "values": [{"measurement": "Median survival", "setting": "[1]; 1 mg/kg PO*QD (vehicle 37 days)", "value": 37, "unit": "days"}, {"measurement": "Median survival", "setting": "[1]; 3 mg/kg PO*QD (vehicle 37 days)", "value": 40.5, "unit": "days"}, {"measurement": "Median survival", "setting": "[1]; 10 mg/kg PO*QD (vehicle 37 days)", "value": 45, "unit": "days"}, {"measurement": "Median survival", "setting": "[1]; 30 mg/kg IV*QW (vehicle 37 days)", "value": 39.5, "unit": "days"}, {"measurement": "Median survival", "setting": "[1]; 30 mg/kg PO*QD (vehicle 37 days)", "value": 56, "unit": "days"}, {"measurement": "Survival compared to vehicle treated group", "setting": "[1]; PO at 10 mg/kg and 30 mg/kg", "value": "significantly prolonged survival"}, {"measurement": "Kp at 6 h", "setting": "[2]; brain, 1 mg/kg, single PO 1 mg/kg, 6 h, read-out: Brain:Plasma Ratio", "value": 6.3}, {"measurement": "Kp at 6 h", "setting": "[2]; brain, 10 mg/kg, single PO 10 mg/kg, 6 h, read-out: Brain:Plasma Ratio", "value": 6.1}, {"measurement": "Kp at 6 h", "setting": "[2]; brain, 30 mg/kg, single PO 30 mg/kg, 6 h, read-out: Brain:Plasma Ratio", "value": 11}, {"measurement": "Kp at 6 h", "setting": "[2]; brain, 100 mg/kg, 6 hours post-dose, each dose level (1, 10, 30, 100 mg/kg PO), read-out: Brain-to-plasma concentration ratio", "value": "> 6"}, {"measurement": "Kp at 6 h", "setting": "[2]; brain, 100 mg/kg, single PO 100 mg/kg, 6 h, read-out: Brain:Plasma Ratio", "value": 12}, {"measurement": "concentration at 6 h", "setting": "[2]; brain, single PO 1 mg/kg, 6 h, read-out: Brain Conc", "value": 58.9, "unit": "ng/mL"}, {"measurement": "concentration at 6 h", "setting": "[2]; brain, single PO 10 mg/kg, 6 h, read-out: Brain Conc", "value": 548, "unit": "ng/mL"}, {"measurement": "concentration at 6 h", "setting": "[2]; brain, single PO 30 mg/kg, 6 h, read-out: Brain Conc", "value": 1970, "unit": "ng/mL"}, {"measurement": "concentration at 6 h", "setting": "[2]; brain, single PO 100 mg/kg, 6 h, read-out: Brain Conc", "value": 2800, "unit": "ng/mL"}, {"measurement": "Cmax", "setting": "[2]; plasma, single PO 1 mg/kg", "value": 9.37, "unit": "ng/mL"}, {"measurement": "Tmax", "setting": "[2]; plasma, single PO 1 mg/kg", "value": 6, "unit": "h"}, {"measurement": "concentration at 1 h", "setting": "[2]; [3]", "value": 1.52, "unit": "ng/mL"}, {"measurement": "concentration at 2 h", "setting": "[2]; [3]", "value": 2.41, "unit": "ng/mL"}, {"measurement": "concentration at 4 h", "setting": "[2]; [3]", "value": 4.91, "unit": "ng/mL"}, {"measurement": "concentration at 6 h", "setting": "[2]; plasma, single PO 1 mg/kg (HCl salt, as free base), 6 h, read-out: Mean Plasma Concentration", "value": 9.37, "unit": "ng/mL"}, {"measurement": "concentration at 8 h", "setting": "[2]; [3]", "value": 6.42, "unit": "ng/mL"}, {"measurement": "concentration at 12 h", "setting": "[2]; [3]", "value": 4.64, "unit": "ng/mL"}, {"measurement": "AUC(0-inf)", "setting": "[2]; plasma, single PO 10 mg/kg", "value": 1080, "unit": "ng·h/mL"}, {"measurement": "Cmax", "setting": "[2]; plasma, single PO 10 mg/kg", "value": 90.4, "unit": "ng/mL"}, {"measurement": "Tmax", "setting": "[2]; plasma, single PO 10 mg/kg", "value": 6, "unit": "h"}, {"measurement": "half-life", "setting": "[2]; plasma, single PO 10 mg/kg", "value": 7.54, "unit": "h"}, {"measurement": "concentration at 1 h", "setting": "[2]; [4]", "value": 8.45, "unit": "ng/mL"}, {"measurement": "concentration at 2 h", "setting": "[2]; [4]", "value": 25.9, "unit": "ng/mL"}, {"measurement": "concentration at 4 h", "setting": "[2]; [4]", "value": 51.6, "unit": "ng/mL"}, {"measurement": "concentration at 6 h", "setting": "[2]; plasma, single PO 10 mg/kg (HCl salt, as free base), 6 h, read-out: Mean Plasma Concentration", "value": 90.4, "unit": "ng/mL"}, {"measurement": "concentration at 8 h", "setting": "[2]; [4]", "value": 52.5, "unit": "ng/mL"}, {"measurement": "concentration at 12 h", "setting": "[2]; [4]", "value": 46.3, "unit": "ng/mL"}, {"measurement": "concentration at 24 h", "setting": "[2]; plasma, single PO 10 mg/kg (HCl salt, as free base), 24 h", "value": 12.9, "unit": "ng/mL"}, {"measurement": "AUC(0-inf)", "setting": "[2]; plasma, single PO 30 mg/kg", "value": 3870, "unit": "ng·h/mL"}, {"measurement": "Cmax", "setting": "[2]; plasma, single PO 30 mg/kg", "value": 180, "unit": "ng/mL"}, {"measurement": "Tmax", "setting": "[2]; plasma, single PO 30 mg/kg", "value": 6, "unit": "h"}, {"measurement": "half-life", "setting": "[2]; plasma, single PO 30 mg/kg", "value": 13.4, "unit": "h"}, {"measurement": "concentration at 1 h", "setting": "[2]; [5]", "value": 43.2, "unit": "ng/mL"}, {"measurement": "concentration at 2 h", "setting": "[2]; [5]", "value": 73.1, "unit": "ng/mL"}, {"measurement": "concentration at 4 h", "setting": "[2]; [5]", "value": 136, "unit": "ng/mL"}, {"measurement": "concentration at 6 h", "setting": "[2]; plasma, single PO 30 mg/kg (HCl salt, as free base), 6 h, read-out: Mean Plasma Concentration", "value": 180, "unit": "ng/mL"}, {"measurement": "concentration at 8 h", "setting": "[2]; [5]", "value": 155, "unit": "ng/mL"}, {"measurement": "concentration at 12 h", "setting": "[2]; [5]", "value": 117, "unit": "ng/mL"}, {"measurement": "concentration at 24 h", "setting": "[2]; plasma, single PO 30 mg/kg (HCl salt, as free base), 24 h", "value": 66.4, "unit": "ng/mL"}, {"measurement": "Cmax", "setting": "[2]; plasma, single PO 100 mg/kg", "value": 243, "unit": "ng/mL"}, {"measurement": "Tmax", "setting": "[2]; plasma, single PO 100 mg/kg", "value": 6, "unit": "h"}, {"measurement": "concentration at 1 h", "setting": "[2]; [6]", "value": 81.2, "unit": "ng/mL"}, {"measurement": "concentration at 2 h", "setting": "[2]; [6]", "value": 142, "unit": "ng/mL"}, {"measurement": "concentration at 4 h", "setting": "[2]; [6]", "value": 151, "unit": "ng/mL"}, {"measurement": "concentration at 6 h", "setting": "[2]; plasma, single PO 100 mg/kg (HCl salt, as free base), 6 h, read-out: Mean Plasma Concentration", "value": 243, "unit": "ng/mL"}, {"measurement": "concentration at 8 h", "setting": "[2]; [6]", "value": 170, "unit": "ng/mL"}, {"measurement": "concentration at 12 h", "setting": "[2]; [6]", "value": 193, "unit": "ng/mL"}, {"measurement": "concentration at 24 h", "setting": "[2]; plasma, single PO 100 mg/kg (HCl salt, as free base), 24 h", "value": 224, "unit": "ng/mL"}, {"measurement": "Mean Plasma Concentration", "setting": "[2]; single PO 1 mg/kg (HCl salt, as free base), 24 h", "value": "BQL"}]}
